In brackets after ≈: the same amount, converted by molar mass. Activity calls are given as the source filed them. The rule behind the calls is not given here.
How the values were obtained:
[1] = Inhibition of Staphylococcus aureus FabF by direct binding assay
[2] = molecular target: T1, Malonyl CoA-acyl carrier protein transacylase (Staphylococcus aureus) (UniProt Q93QD4); experiment: Inhibition of Staphylococcus aureus FabD assessed as reduced malonyl-ACP levels
T1 sequence (whole entry): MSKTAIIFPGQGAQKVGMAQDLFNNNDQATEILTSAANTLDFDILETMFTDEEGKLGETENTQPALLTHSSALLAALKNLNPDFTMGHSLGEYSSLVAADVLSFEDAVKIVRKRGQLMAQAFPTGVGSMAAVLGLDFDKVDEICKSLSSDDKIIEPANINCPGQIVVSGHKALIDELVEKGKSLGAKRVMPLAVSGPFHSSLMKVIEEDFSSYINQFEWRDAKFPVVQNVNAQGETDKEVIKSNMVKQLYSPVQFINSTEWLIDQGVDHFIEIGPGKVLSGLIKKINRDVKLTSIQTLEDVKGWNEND

[3] = Inhibition of Staphylococcus aureus FabH assessed as reduced accumulation of long chain beta-ketoacyl-ACP by FabF/FabH PAGE elongation assay
Staphylococcus aureus [4] = experiment: Antibacterial activity against methicillin-resistant Staphylococcus aureus; type: functional
Staphylococcus aureus [5] = experiment: Antibacterial activity against methicillin and macrolide-resistant Staphylococcus aureus; type: functional
Streptococcus pneumoniae [6] = experiment: Inhibition of fatty acid synthesis in Streptococcus pneumoniae in whole cell activity assay; type: functional, organism-based
Staphylococcus aureus [7] = experiment: Antibacterial activity against vancomycin-intermediate resistant Staphylococcus aureus; type: functional
Staphylococcus aureus [8] = experiment: Antibacterial activity against methicillin-sensitive Staphylococcus aureus; type: functional
Streptococcus pneumoniae [9] = experiment: Antibacterial activity against Streptococcus pneumoniae; type: functional
Escherichia coli [10] = experiment: Antibacterial activity against efflux negative-tolC mutant containing Escherichia coli; type: functional
HeLa = experiment: Cytotoxicity against human HeLa cells by MTT assay; type: functional, cell-based
Enterococcus faecalis = experiment: Antibacterial activity against macrolide-resistant Enterococcus faecalis; type: functional
[11] = Inhibition of Staphylococcus aureus FabF assessed as reduced accumulation of acetoacetyl-ACP by FabF/FabH PAGE elongation assay
Staphylococcus aureus [12] = experiment: Antibacterial activity against methicillin and linezolid-resistant Staphylococcus aureus; type: functional
Staphylococcus aureus [13] = experiment: Inhibition of fatty acid synthesis in Staphylococcus aureus in whole cell activity assay; type: functional, organism-based
Staphylococcus aureus [14] = experiment: Antibacterial activity against Staphylococcus aureus expressing antisense fabF assessed as drug level causing >5 mm zone of inhibition after 18 hrs by agar diffusion two plate differential sensitivity antisense assay; type: functional
Escherichia coli [15] = experiment: Antibacterial activity against wild type Escherichia coli; type: functional
[16] = Inhibition of Staphylococcus aureus FabH by direct binding assay
Staphylococcus aureus [17] = experiment: Antibacterial activity against methicillin-sensitive Staphylococcus aureus infected mouse kidney assessed as log reduction of bacterial count at 150 ug/hr after 24 hrs; type: functional
Staphylococcus aureus [18] = experiment: Antibacterial activity against Staphylococcus aureus in presence of serum; type: functional
Mus musculus = species: Mus musculus; experiment: Toxicity in methicillin-sensitive Staphylococcus aureus infected mouse model at 150 ug/hr after 24 hrs; type: organism-based; conditions: in vivo
Enterococcus faecium = experiment: Antibacterial activity against vancomycin-resistant Enterococcus faecium; type: functional
Candida albicans = experiment: Antifungal activity against Candida albicans; type: functional
[19] = Toxicity in human RBC assessed as drug level causing hemolysis; type: cell-based; conditions: erythrocyte
[20] = Inhibition of Staphylococcus aureus FabH assessed as reduced accumulation of acetoacetyl-ACP by FabF/FabH PAGE elongation assay
Staphylococcus aureus [21] = experiment: Inhibition of Staphylococcus aureus FabF assessed as reduced accumulation of long chain beta-ketoacyl-ACP at 2 ug/ml by FabF/FabH PAGE elongation assay
Staphylococcus aureus [22] = experiment: Inhibition of Staphylococcus aureus FabF assessed as reduced accumulation of long chain beta-ketoacyl-ACP at 20 ug/ml by FabF/FabH PAGE elongation assay
Staphylococcus aureus [23] = experiment: Inhibition of RNA biosynthesis in Staphylococcus aureus upto 50 ug/ml in whole cell activity assay; type: functional, organism-based
[24] = Inhibition of Staphylococcus aureus FabF assessed as reduced accumulation of long chain beta-ketoacyl-ACP by FabF/FabH PAGE elongation assay
Staphylococcus aureus [25] = experiment: Inhibition of DNA biosynthesis in Staphylococcus aureus upto 50 ug/ml in whole cell activity assay; type: functional, organism-based
Staphylococcus aureus [26] = experiment: Inhibition of protein biosynthesis in Staphylococcus aureus upto 50 ug/ml in whole cell activity assay; type: functional, organism-based
Staphylococcus aureus [27] = experiment: Inhibition of cell wall biosynthesis in Staphylococcus aureus upto 50 ug/ml in whole cell activity assay; type: functional, organism-based

| Compound | Activity [2] | MIC (Staphylococcus aureus [4]) [µg/mL] | MIC (Staphylococcus aureus [5]) [µg/mL] | IC50 (Streptococcus pneumoniae [6]) [µg/mL] | MIC (Staphylococcus aureus [7]) [µg/mL] | MIC (Staphylococcus aureus [8]) [µg/mL] | MIC (Streptococcus pneumoniae [9]) [µg/mL] | MIC (Escherichia coli [10]) [µg/mL] | IC50 (HeLa) [µg/mL] | MIC (Enterococcus faecalis) [µg/mL] | MIC (Staphylococcus aureus [12]) [µg/mL] | IC50 (Staphylococcus aureus [13]) [µg/mL] | Activity (Staphylococcus aureus [14]) [µg] | MIC (Escherichia coli [15]) [µg/mL] | IC50 [16] [µM] | MIC (Staphylococcus aureus [18]) [µg/mL] | MIC (Enterococcus faecium) [µg/mL] | MIC (Candida albicans) [µg/mL] | Activity [19] [µg/mL] | IC50 [20] [µM] | also measured |
| --- | --- | --- | --- | --- | --- | --- | --- | --- | --- | --- | --- | --- | --- | --- | --- | --- | --- | --- | --- | --- | --- |
| C=C1C[C@@]23C=CC(=O)[C@@](C)(CCC(=O)Nc4c(O)ccc(C(=O)O)c4O)[C@@H]2C[C@@H]1CC3 [PLATENCIN] | inactive | 1 (≈ 2.35 µM) | 1 (≈ 2.35 µM) | 2.7 (≈ 6.35 µM) | 0.5 (≈ 1.18 µM) | 0.5 (≈ 1.18 µM) | 4 (≈ 9.4 µM) | 2 (≈ 4.7 µM) | > 100 | 2 (≈ 4.7 µM) | 1 (≈ 2.35 µM) | 0.19 (≈ 0.447 µM) | 0.002 | > 64 | 16.2 | 8 | < 0.06 | > 64 | > 67 |  | IC50 [1]: 0.113 µM; IC50 [3]: 9.17 µM; IC50 [11]: 4.58 µM; Activity (Staphylococcus aureus [17]): 3; Activity (Mus musculus): Non-toxic |
| O=C(O)c1cc2cc(OCc3c(Cl)cccc3Cl)ccc2n1Cc1cc2c(cc1Cl)OCO2 |  |  |  |  |  |  |  |  |  |  |  |  |  |  |  |  |  |  |  | 3.96 | inhibition (Staphylococcus aureus [21]): 50%; inhibition (Staphylococcus aureus [22]): 90% |
| CC12C[C@@]34C=CC(=O)[C@@](C)(CCC(=O)Nc5c(O)ccc(C(=O)O)c5O)C3[C@H](CC1C4)O2 (stereo partly specified) [PLATENSIMYCIN] | inactive | 0.5 (≈ 1.13 µM) | 0.5 (≈ 1.13 µM) | 0.8 (≈ 1.81 µM) | 0.5 (≈ 1.13 µM) | 0.5 (≈ 1.13 µM) | 1 (≈ 2.27 µM) | 16 (≈ 36.2 µM) | > 1000 | 1 (≈ 2.27 µM) | 1 (≈ 2.27 µM) | 0.1 (≈ 0.227 µM) | 0.004 | > 64 | 67 | 2 | 0.1 (≈ 0.227 µM) | > 64 | > 67 | 247 | Activity (Staphylococcus aureus [23]): inactive; IC50 [24]: 0.29 µM; Activity (Staphylococcus aureus [25]): inactive; Activity (Staphylococcus aureus [26]): inactive; Activity (Staphylococcus aureus [27]): inactive |
| C[C@@H]1[C@H](O)[C@@H](C)/C=C/C=C/C=C/C=C/C=C/C=C/C=C/[C@H](O[C@@H]2O[C@H](C)[C@@H](O)[C@H](N)[C@@H]2O)C[C@@H]2O[C@](O)(C[C@@H](O)C[C@@H](O)[C@H](O)CC[C@@H](O)C[C@@H](O)CC(=O)O[C@H]1C)C[C@H](O)[C@H]2C(=O)O [AMPHOTERICIN B] |  |  |  |  |  |  |  |  |  |  |  |  |  |  |  |  |  |  | 2 |  |  |
| O=C(N[C@H](CO)[C@H](O)c1ccc([N+](=O)[O-])cc1)C(Cl)Cl [CHLORAMPHENICOL] |  |  |  |  |  |  |  |  |  |  |  |  |  |  |  |  |  |  | > 64 |  |  |
| CC(=O)NC[C@H]1CN(c2ccc(N3CCOCC3)c(F)c2)C(=O)O1 [LINEZOLID] |  |  |  |  |  |  |  | 32 (≈ 94.9 µM) | > 100 |  | 32 (≈ 94.9 µM) |  |  | > 64 |  |  | 2 (≈ 5.93 µM) | > 64 | > 67 |  |  |

From ChEMBL document CHEMBL1142219, “Discovery of platencin, a dual FabF and FabH inhibitor with in vivo antibiotic properties” (Proc Natl Acad Sci U S A, 2007)
